# Results as given in patent US6297354A, “Pentapeptide LHRH antagonists” (Abbott Laboratories, priority 1999, dated 2001).
# Where a SMILES comes first, the peptide text is derived from it. [ ]: non-standard residue; d: D form. The star is where a group is joined. Propanoyl(3-(4-F-phenyl)) = O=C(CCc1ccc(F)cc1)*; NH(2-pyrrolidin-1-ylethyl) = C1CCN(CCN*)C1; dBip = N[C@H](Cc1ccc(-c2ccccc2)cc1)C(=O)O; 1Nal = N[C@@H](Cc1cccc2ccccc12)C(=O)O; d1Nal = N[C@H](Cc1cccc2ccccc12)C(=O)O; NMeY = CN[C@@H](Cc1ccc(O)cc1)C(=O)O; Tic = O=C(O)[C@@H]1Cc2ccccc2CN1; NMeL = CN[C@@H](CC(C)C)C(=O)O; Nicotinoyl = O=C(c1cccnc1)*; Sar = CNCC(=O)O
# Molecular target: T1, LH release from rat pituitary cells (Rattus norvegicus, UniProt P30969)
# T1 sequence (P30969 1-327): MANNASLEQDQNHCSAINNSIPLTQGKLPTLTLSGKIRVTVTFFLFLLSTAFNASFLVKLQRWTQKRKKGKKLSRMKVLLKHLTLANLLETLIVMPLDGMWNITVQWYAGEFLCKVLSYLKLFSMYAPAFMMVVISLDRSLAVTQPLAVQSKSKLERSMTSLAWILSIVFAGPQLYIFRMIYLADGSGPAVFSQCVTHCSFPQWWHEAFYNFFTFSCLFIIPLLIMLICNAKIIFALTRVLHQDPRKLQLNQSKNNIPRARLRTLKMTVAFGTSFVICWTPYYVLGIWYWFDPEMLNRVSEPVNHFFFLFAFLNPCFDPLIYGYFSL
# Test: in vitro inhibition of LH release from rat pituitary cells (pA2, vs agonist leuprolide)
# Type: cell-based
# Conditions: negative logarithm of antagonist concentration required to shift the response curve produced by agonist leuprolide to two-fold higher concentration
# Description: Representative compounds of the present invention were evaluated in vitro for inhibition of LH release from rat pituitary cells (pA2). Methods for the assay procedures are described by F. Haviv, et al. J. Med. Chem., 32:2340-2344 (1989). Values of pA2 are the negative logarithms of the concentration of the particular antagonist test compound required to shift the response curve produced by the agonist leuprolide to two-fold higher concentration. Typically values of 6.0 or greater are indicative of good LHRH antagonist potency, with values of 7.0 or greater being preferred. Leuprolide LHRH agonist, disclosed and claimed in U.S. Pat. No. 4,005,063, has the structure 5-oxo-Pro1^1 -His^2 […] -Ser^4 -Tyr^5 -D-Leu^6 -Leu^7 -Arg^8 -Pro^9 -NHEt.
row,Structure (SMILES),LHRH Antagonist Activity (pA2)
1,"CC(C)C[C@H](NC(=O)[C@@H](CCCCNC(=O)c1cccnc1)NC(=O)[C@H](Cc1ccc(O)cc1)N(C)C(=O)[C@H](CO)NC(=O)[C@@H](Cc1cccc2ccccc12)NC(=O)CCc1ccc(F)cc1)C(=O)NCCN1CCCC1 [Example 1, 4-F-Phenylpropionyl-D1Nal-Ser-NMeTyr-DLys(Nic)-Leu-NH--(CH2)2 -(1-pyrrolidine)] ({Propanoyl(3-(4-F-phenyl))}-[d1Nal]S[NMeY][dK](Nicotinoyl)L-{NH(2-pyrrolidin-1-ylethyl)})",9.91
2,"CC(C)C[C@H](NC(=O)CNC(=O)[C@H](Cc1ccc(O)cc1)N(C)C(=O)[C@H](CO)NC(=O)[C@@H](Cc1cccc2ccccc12)NC(=O)CCc1ccc(F)cc1)C(=O)NCCN1CCCC1 [Example 2, 4-F-Phenylpropionyl-D1Nal-Ser-NMeTyr-Gly-Leu-NH--(CH2)2 -(1pyrrolidine)] ({Propanoyl(3-(4-F-phenyl))}-[d1Nal]S[NMeY]GL-{NH(2-pyrrolidin-1-ylethyl)})",9.14
3,"CC(C)C[C@H](NC(=O)[C@@H](CCCCNC(=O)c1cccnc1)NC(=O)CN(C)C(=O)[C@H](CO)NC(=O)[C@@H](Cc1cccc2ccccc12)NC(=O)CCc1ccc(F)cc1)C(=O)NCCN1CCCC1 [Example 3, 4-F-Phenylpropionyl-D1Nal-Ser-Sar-DLys(Nic)-Leu-NH--(CH2)2 (1-pyrrolidine)] ({Propanoyl(3-(4-F-phenyl))}-[d1Nal]S[Sar][dK](Nicotinoyl)L-{NH(2-pyrrolidin-1-ylethyl)})",7.66
4,"CC(C)C[C@H](NC(=O)[C@@H](CCCCNC(=O)c1cccnc1)NC(=O)[C@H](Cc1ccc(O)cc1)N(C)C(=O)CNC(=O)[C@@H](Cc1cccc2ccccc12)NC(=O)CCc1ccc(F)cc1)C(=O)NCCN1CCCC1 [Example 6, 4-F-Phenylpropionyl-D1Nal-Gly-NMeTyr-DLys(Nic)-Leu-NH--(CH2)2 -(1-pyrrolidine)] ({Propanoyl(3-(4-F-phenyl))}-[d1Nal]G[NMeY][dK](Nicotinoyl)L-{NH(2-pyrrolidin-1-ylethyl)})",8.90
5,"CC(C)C[C@H](NC(=O)[C@@H](CCCCNC(=O)c1cccnc1)NC(=O)[C@H](Cc1ccc(O)cc1)NC(=O)[C@H](CO)NC(=O)[C@@H](Cc1cccc2ccccc12)NC(=O)CCc1ccc(F)cc1)C(=O)NCCN1CCCC1 [Example 7, 4-F-Phenylpropiopyl-D1Nal-Ser-Tyr-DLys(Nic)-Leu-NH--(CH2)2 -(1-pyrrolidine)] ({Propanoyl(3-(4-F-phenyl))}-[d1Nal]SY[dK](Nicotinoyl)L-{NH(2-pyrrolidin-1-ylethyl)})",9.73
6,"CC(C)C[C@@H](C(=O)NCCN1CCCC1)N(C)C(=O)CNC(=O)[C@H](Cc1ccc(O)cc1)N(C)C(=O)[C@H](CO)NC(=O)[C@@H](Cc1cccc2ccccc12)NC(=O)CCc1ccc(F)cc1 [Example 8, 4-F-Phenylpropionyl-D1Nal-Ser-NMeTyr-Gly-NMeLeu-NH--(CH2)2 -(1Pyrrolidine)] ({Propanoyl(3-(4-F-phenyl))}-[d1Nal]S[NMeY]G[NMeL]-{NH(2-pyrrolidin-1-ylethyl)})",9.00
7,"CC(C)C[C@@H](C(=O)NCCN1CCCC1)N(C)C(=O)CNC(=O)[C@H](Cc1ccc(O)cc1)N(C)C(=O)CNC(=O)[C@@H](Cc1cccc2ccccc12)NC(=O)CCc1ccc(F)cc1 [Example 9, 4-F-Phenylpropionyl-D1Nal-Gly-NMeTyr-Gly-NMeLeu-NH--(CH2)2 -(1-pyrrolidine)] ({Propanoyl(3-(4-F-phenyl))}-[d1Nal]G[NMeY]G[NMeL]-{NH(2-pyrrolidin-1-ylethyl)})",7.72
8,"CC(C)C[C@H](NC(=O)[C@@H](CCCCNC(=O)c1cccnc1)NC(=O)[C@H](Cc1ccc(O)cc1)N(C)C(=O)[C@H](CO)NC(=O)[C@@H](Cc1c[nH]c2ccccc12)NC(=O)CCc1ccc(F)cc1)C(=O)NCCN1CCCC1 [Example 10, 4-F-Phenylpropionyl-DTrp-Ser-NMeTyr-DLys(Nic)-Leu-NH--(CH2)2 -(1-pyrrolidine)] ({Propanoyl(3-(4-F-phenyl))}-[dW]S[NMeY][dK](Nicotinoyl)L-{NH(2-pyrrolidin-1-ylethyl)})",8.69
9,"CC(C)C[C@H](NC(=O)[C@@H](CCCCNC(=O)c1cccnc1)NC(=O)[C@H](Cc1ccc(O)cc1)N(C)C(=O)[C@H](CO)NC(=O)[C@@H](Cc1ccc(-c2ccccc2)cc1)NC(=O)CCc1ccc(F)cc1)C(=O)NCCN1CCCC1 [Example 11, 4-F-Phenylpropionyl-DBiphe-Ser-NMeTyr-DLys(Nic)-Leu-NH--(CH2)2-(1-pyrrolidine)] ({Propanoyl(3-(4-F-phenyl))}-[dBip]S[NMeY][dK](Nicotinoyl)L-{NH(2-pyrrolidin-1-ylethyl)})",7.62
10,"CC(C)C[C@H](NC(=O)[C@@H](CCCCNC(=O)c1cccnc1)NC(=O)[C@H](Cc1ccc(O)cc1)N(C)C(=O)[C@H](CO)NC(=O)[C@H](Cc1cccc2ccccc12)NC(=O)CCc1ccc(F)cc1)C(=O)NCCN1CCCC1 [Example 14, 4-F-Phenylpropionyl-1Nal-Ser-NMeTyr-DLys(Nic)-Leu-NH--(CH2)2 -(1-pyrrolidine)] ({Propanoyl(3-(4-F-phenyl))}-[1Nal]S[NMeY][dK](Nicotinoyl)L-{NH(2-pyrrolidin-1-ylethyl)})",8.68
11,"CC(C)C[C@H](NC(=O)[C@@H](Cc1ccccc1)NC(=O)[C@H](Cc1ccc(O)cc1)N(C)C(=O)[C@H](CO)NC(=O)[C@@H](Cc1c[nH]c2ccccc12)NC(=O)CCc1ccc(F)cc1)C(=O)NCCN1CCCC1 [Example 15, 4-F-Phenylpropionyl-DTrp-Ser-NMeTyr-DPhe-Leu-NH--(CH2)2 -(1-pyrrolidine)] ({Propanoyl(3-(4-F-phenyl))}-[dW]S[NMeY][dF]L-{NH(2-pyrrolidin-1-ylethyl)})",8.59
12,"CC(C)C[C@H](NC(=O)[C@@H](CCCCNC(=O)c1cccnc1)NC(=O)[C@H](Cc1ccc(O)cc1)N(C)C(=O)[C@@H]1CCCN1C(=O)[C@@H](Cc1cccc2ccccc12)NC(=O)CCc1ccc(F)cc1)C(=O)NCCN1CCCC1 [Example 16, 4-F-Phenylpropionyl-D1Nal-Pro-NMeTyr-DLys(Nic)-Leu-NH--(CH2)2 -(1-Pyrrolidine)] ({Propanoyl(3-(4-F-phenyl))}-[d1Nal]P[NMeY][dK](Nicotinoyl)L-{NH(2-pyrrolidin-1-ylethyl)})",8.71
13,"CC(C)C[C@H](NC(=O)[C@@H](CCCCNC(=O)c1cccnc1)NC(=O)[C@@H]1Cc2ccccc2CN1C(=O)[C@H](CO)NC(=O)[C@@H](Cc1cccc2ccccc12)NC(=O)CCc1ccc(F)cc1)C(=O)NCCN1CCCC1 [Example 17, 4-F-Phenylpropionyl-D1Nal-Ser-Tic-DLys(Nic)-Leu-NH--(CH2)2 -( 1-pyrrolidine)] ({Propanoyl(3-(4-F-phenyl))}-[d1Nal]S[Tic][dK](Nicotinoyl)L-{NH(2-pyrrolidin-1-ylethyl)})",9.32
14,"CC(C)C[C@H](NC(=O)[C@@H](CCCCNC(=O)c1cccnc1)NC(=O)[C@H](Cc1ccc(O)cc1)N1CC[C@H](NC(=O)[C@@H](Cc2cccc3ccccc23)NC(=O)CCc2ccc(F)cc2)C1=O)C(=O)NCCN1CCCC1 [Example 19, 4-F-Phenylpropionyl-D1Nal-6,7[2-(S-3-amino-2-oxo-pyrrolidin-1-yl)-S-2-(para-hydroxyl)phenylacetyl]-DLys(Nic)-Leu-NH--(CH2)2-(1-pyrrolidine)]",7.89
